Source: paper PMC6972948 (Scientific Reports, 2020)

System: A/duck/Ukraine/1/1963
Format: cell-based, avian influenza A virus

SMILES: CCC(CC)O[C@@H]1C=C(C(=O)O)C[C@H](N)[C@H]1NC(C)=O [Oseltamivir carboxylate, oseltamivir carboxylate]
- plaque formation: complete abrogation of plaque formation
- Plaque dia. (Conc. 1 μM): 0 mm
- Plaque qty. (Conc. 1 μM): 0
